In ChEMBL document CHEMBL1201862, “PubChem BioAssay data set” (2004):
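48-hour exposure; five concentrations; linearly interpolated endpoints. At the GI50, growth is halved.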 Calls of active or inactive are those of the source. Cut-off read from the data, not from the text of the source: active = GI50 up to about 1.1 µM and inactive = higher.

Legend:
Assay in all cases: NCI anticancer screen, dose series, 48 h
CAKI-1 = test system: CAKI-1
CCRF-CEM = test system: CCRF-CEM
EKVX = test system: EKVX
HCT-15 = test system: HCT-15
HL-60 = test system: HL-60
HT-29 = test system: HT-29
Malme-3M = test system: Malme-3M
PC-3 = test system: PC-3
RXF 393 = test system: RXF 393
SF-295 = test system: SF-295
SN12C = test system: SN12C
SNB-19 = test system: SNB-19
SNB-75 = test system: SNB-75
U-251 = test system: U-251
UACC-257 = test system: UACC-257
UACC-62 = test system: UACC-62
UO-31 = test system: UO-31
A498 = test system: A498
K562 = test system: K562
MCF7 = test system: MCF7

| Compound | GI50 (CAKI-1) | GI50 (CCRF-CEM) | GI50 (EKVX) | GI50 (HCT-15) [µM] | GI50 (HL-60) | GI50 (HT-29) | GI50 (Malme-3M) | GI50 (PC-3) | GI50 (RXF 393) | GI50 (SF-295) | GI50 (SN12C) | GI50 (SNB-19) | GI50 (SNB-75) | GI50 (U-251) | GI50 (UACC-257) | GI50 (UACC-62) | GI50 (UO-31) | GI50 (A498) | GI50 (K562) | GI50 (MCF7) |
| --- | --- | --- | --- | --- | --- | --- | --- | --- | --- | --- | --- | --- | --- | --- | --- | --- | --- | --- | --- | --- |
| CCCCCCCCCCCCCCCCCCNc1ccn(C2OC(CO)C(OP(=O)(O)OCC3CCC(n4ccc(N)nc4=O)O3)C2O)c(=O)n1 (centres undefined) | > 100 µM (inactive) | 16.7 µM (inactive) | > 100 µM (inactive) | 40.3 | 17.1 µM (inactive) | 42.5 µM (inactive) | 21.1 µM (inactive) | 17.4 µM (inactive) | 15.6 µM (inactive) | > 100 µM (inactive) | > 100 µM (inactive) | > 100 µM (inactive) | 62.2 µM (inactive) | > 100 µM (inactive) | > 100 µM (inactive) | > 100 µM (inactive) | 22.2 µM (inactive) | – | – | – |
| Nc1ncnc2c1ncn2-c1ccc([N+](=O)[O-])cn1 | > 100 µM (inactive) | > 100 µM (inactive) | – | > 100 | > 100 µM (inactive) | > 100 µM (inactive) | – | – | > 100 µM (inactive) | > 100 µM (inactive) | > 100 µM (inactive) | > 100 µM (inactive) | 41.4 µM (inactive) | > 100 µM (inactive) | > 100 µM (inactive) | > 100 µM (inactive) | > 100 µM (inactive) | > 100 µM (inactive) | > 10 µM (inactive) | > 100 µM (inactive) |
| Cc1cc(C)c2c(c1)C/C(=C\c1cccc(C)c1C(=O)O)C2=O | > 100 µM (inactive) | 36.6 µM (inactive) | 60.7 µM (inactive) | 49.5 | > 100 µM (inactive) | 72.6 µM (inactive) | 58.1 µM (inactive) | 39.5 µM (inactive) | 72.9 µM (inactive) | 78 µM (inactive) | 42.6 µM (inactive) | 59.6 µM (inactive) | 55 µM (inactive) | – | 33.3 µM (inactive) | 47.8 µM (inactive) | 39.6 µM (inactive) | 63.1 µM (inactive) | 31.1 µM (inactive) | – |
| COC(=O)C(Cc1c(C2Nc3ccccc3C2CC(NC(=O)CNC(C)=O)C(=O)OC)[nH]c2ccccc12)NC(=O)CNC(C)=O (centres undefined) | > 100 µM (inactive) | > 100 µM (inactive) | > 100 µM (inactive) | > 100 | > 26.6 µM (inactive) | > 100 µM (inactive) | > 100 µM (inactive) | – | > 100 µM (inactive) | > 100 µM (inactive) | > 100 µM (inactive) | > 100 µM (inactive) | 7.82 µM (inactive) | > 100 µM (inactive) | > 100 µM (inactive) | > 100 µM (inactive) | > 100 µM (inactive) | > 100 µM (inactive) | > 100 µM (inactive) | > 100 µM (inactive) |
| O=C1C=C/C(=N\N=C(c2ccccc2)c2ccccc2)O1 | > 10 µM (inactive) | 8.49 µM (inactive) | > 10 µM (inactive) | > 10 | > 10 µM (inactive) | > 10 µM (inactive) | > 10 µM (inactive) | > 10 µM (inactive) | > 10 µM (inactive) | > 10 µM (inactive) | > 10 µM (inactive) | – | > 10 µM (inactive) | – | > 10 µM (inactive) | > 10 µM (inactive) | – | – | > 10 µM (inactive) | > 10 µM (inactive) |
| COC(=O)[C@H]1CC(=O)C=C2CCCC21 (some centres undefined) | > 100 µM (inactive) | > 100 µM (inactive) | > 100 µM (inactive) | > 100 | > 100 µM (inactive) | > 100 µM (inactive) | > 100 µM (inactive) | – | > 100 µM (inactive) | > 100 µM (inactive) | > 100 µM (inactive) | > 100 µM (inactive) | > 100 µM (inactive) | > 100 µM (inactive) | > 100 µM (inactive) | > 100 µM (inactive) | > 100 µM (inactive) | > 100 µM (inactive) | > 100 µM (inactive) | – |
| CC(C)CC(=O)NC(NC(C)C)(C(F)(F)F)C(F)(F)F | > 100 µM (inactive) | > 100 µM (inactive) | > 100 µM (inactive) | > 100 | 60.5 µM (inactive) | > 100 µM (inactive) | > 100 µM (inactive) | > 100 µM (inactive) | > 100 µM (inactive) | – | > 100 µM (inactive) | > 100 µM (inactive) | > 100 µM (inactive) | > 100 µM (inactive) | > 100 µM (inactive) | > 100 µM (inactive) | > 100 µM (inactive) | – | > 100 µM (inactive) | > 100 µM (inactive) |
| O=c1/c(=C/c2ccc3c(c2)OCO3)sc2nnc(Cc3ccccc3)n12 | > 100 µM (inactive) | 81.5 µM (inactive) | > 100 µM (inactive) | > 100 | > 100 µM (inactive) | – | > 100 µM (inactive) | – | > 100 µM (inactive) | > 100 µM (inactive) | > 100 µM (inactive) | > 100 µM (inactive) | 61.1 µM (inactive) | > 100 µM (inactive) | 13.1 µM (inactive) | > 100 µM (inactive) | > 100 µM (inactive) | > 100 µM (inactive) | > 100 µM (inactive) | – |
| COc1ccc(/N=C2\C(=N/c3ccc(OC)cc3)N(c3ccccc3[N+](=O)[O-])C(=S)N2c2ccc(OC)cc2)cc1 | 81.5 µM (inactive) | – | 99.3 µM (inactive) | > 100 | – | – | – | 91.6 µM (inactive) | 23.9 µM (inactive) | 51.8 µM (inactive) | > 100 µM (inactive) | > 100 µM (inactive) | > 100 µM (inactive) | > 100 µM (inactive) | – | 78.9 µM (inactive) | 78 µM (inactive) | – | 35.5 µM (inactive) | > 100 µM (inactive) |
| O=C(OCC(Cl)(Cl)Cl)N1CC[C@H](C2CCCCC2)C1 | 31.6 µM (inactive) | 15.5 µM (inactive) | 16.9 µM (inactive) | 18.2 | – | – | – | 21.6 µM (inactive) | 19.5 µM (inactive) | 16.2 µM (inactive) | 37.2 µM (inactive) | 16.5 µM (inactive) | 20.8 µM (inactive) | 1.09 µM (active) | 19.1 µM (inactive) | 22.1 µM (inactive) | 17.6 µM (inactive) | – | 21.1 µM (inactive) | 18.6 µM (inactive) |
| Cn1c(=O)nc2n(CCO)c(-c3ccccc3)c(-c3ccccc3)nc-2c1=O | > 100 µM (inactive) | > 100 µM (inactive) | > 100 µM (inactive) | > 100 | – | > 100 µM (inactive) | > 100 µM (inactive) | > 100 µM (inactive) | > 100 µM (inactive) | > 100 µM (inactive) | > 100 µM (inactive) | > 100 µM (inactive) | > 100 µM (inactive) | > 100 µM (inactive) | > 100 µM (inactive) | > 100 µM (inactive) | > 100 µM (inactive) | > 100 µM (inactive) | > 100 µM (inactive) | – |
| C=CCC1(C)CCCCC1(O)C[S+]([O-])c1ccccc1 (centres undefined) | > 100 µM (inactive) | > 100 µM (inactive) | > 100 µM (inactive) | > 100 | 54.5 µM (inactive) | > 100 µM (inactive) | > 100 µM (inactive) | – | > 100 µM (inactive) | > 100 µM (inactive) | > 100 µM (inactive) | > 100 µM (inactive) | > 100 µM (inactive) | > 100 µM (inactive) | > 100 µM (inactive) | > 100 µM (inactive) | > 100 µM (inactive) | > 100 µM (inactive) | – | – |
| C=C[C@@H](C)[C@]1(C(=O)OC)CCCC12OCCO2 | > 100 µM (inactive) | > 100 µM (inactive) | > 100 µM (inactive) | 94.2 | > 100 µM (inactive) | > 100 µM (inactive) | > 100 µM (inactive) | – | > 100 µM (inactive) | > 100 µM (inactive) | > 100 µM (inactive) | > 100 µM (inactive) | > 100 µM (inactive) | > 100 µM (inactive) | > 100 µM (inactive) | > 100 µM (inactive) | > 100 µM (inactive) | > 100 µM (inactive) | > 100 µM (inactive) | – |
| O=c1oc2ccc3ccccc3c2cc1-c1cn2ccsc2n1 | 23.8 µM (inactive) | 3.89 µM (inactive) | 16.1 µM (inactive) | 16 | 17.8 µM (inactive) | 18 µM (inactive) | 21.2 µM (inactive) | 26.7 µM (inactive) | 17.3 µM (inactive) | 78.2 µM (inactive) | 28.4 µM (inactive) | > 100 µM (inactive) | > 100 µM (inactive) | 71.9 µM (inactive) | 24.8 µM (inactive) | 16.2 µM (inactive) | 14.6 µM (inactive) | – | 17.3 µM (inactive) | 3.03 µM (inactive) |
| COc1cccc(/N=N/C(=NNC(=O)c2ccc(C)cc2)c2ccc(N(C)C)cc2)c1 | > 100 µM (inactive) | > 100 µM (inactive) | > 100 µM (inactive) | > 100 | > 100 µM (inactive) | > 100 µM (inactive) | – | > 100 µM (inactive) | – | > 100 µM (inactive) | > 100 µM (inactive) | > 100 µM (inactive) | – | > 100 µM (inactive) | > 100 µM (inactive) | – | > 100 µM (inactive) | – | 44 µM (inactive) | > 100 µM (inactive) |
| O=S(=O)(O)SC/C=C\CSS(=O)(=O)O | > 100 µM (inactive) | – | > 100 µM (inactive) | 65.8 | > 100 µM (inactive) | > 100 µM (inactive) | > 100 µM (inactive) | – | > 100 µM (inactive) | > 100 µM (inactive) | > 100 µM (inactive) | > 100 µM (inactive) | > 100 µM (inactive) | 61.2 µM (inactive) | > 100 µM (inactive) | > 100 µM (inactive) | > 100 µM (inactive) | > 100 µM (inactive) | > 100 µM (inactive) | – |
